The values that follow come from PMC5773532, “Crystal structure of an assembly intermediate of respiratory Complex II” (Nature Communications, 2018).

The target of one test is T1, E. coli FrdA subunit (Escherichia coli, UniProt P00363).
T1 construct: made in house; host or cells: E. coli RP-2 (RP437ΔfrdΔsdh)
The test is described as follows: biochemical. The class given is binding. The procedure: (§1) To interrogate dicarboxylate orientation in solution, we focused on oxaloacetate. When oxaloacetate is correctly oriented in the active site, it induces a characteristic spectrum (charge transfer band) attributed to π–π interactions between the oxygen of oxaloacetate and the isoalloxazine ring of FAD.
(§2) Studies were performed using a HP8453 UV/Vis spectrophotometer (Agilent, Santa Clara, CA). Binding experiments were carried out in 50 mM Bis-Tris-Propane (pH 8.0) at 25 °C. The isolated flavoproteins were added to a cuvette and titrated by the sequential addition of ligand solutions. The wavelength giving the highest amplitude change for each ligand was selected from the difference spectra for the analysis. The dissociation constant (Kd) values were obtained by the analysis of the changes in absorbance vs total ligand concentration. The Kd was determined according Eq. 1:1 ΔA=ΔAmaxET+LT+Kd-ET+LT+Kd^2-4ETLT/2ET where ET is a total protein concentration, LT is a total ligand concentration, ΔA and ΔAmax are the absorbance changes at a given and saturation ligand concentration. The protein concentration used for FrdA, SdhA, and quinol:fumarate reductase (QFR) were in a range of 7 to 9 µM. […]

In the next test the target is E. coli SdhA subunit (Escherichia coli, UniProt P0AC41). Kind of test: Optical difference spectroscopy, ligand binding to isolated SdhA subunit. The following applies: read-out: Kd^malonate. The procedure:
as §1, §2

Another test addresses T2, FrdA+SdhE (Escherichia coli, UniProt P00363).
T2 construct: made in house; host or cells: FrdA: E. coli RP-2; SdhE for this assay: not described
The test is described as follows: Optical difference spectroscopy, dicarboxylate binding to FrdA in the presence of SdhE. The procedure: (§3) If this mechanistic proposal for covalent flavinylation is correct, we would anticipate that the FrdA-SdhE assembly intermediate would bind with reasonable affinity to biologically relevant dicarboxylates. […] Thus, the shifted architecture of SdhE-bound FrdA maintains dicarboxylate binding, supporting our mechanism.
(§4) Studies were performed using a HP8453 UV/Vis spectrophotometer (Agilent, Santa Clara, CA). […] The isolated flavoproteins were added to a cuvette and titrated by the sequential addition of ligand solutions. The wavelength giving the highest amplitude change for each ligand was selected from the difference spectra for the analysis. The dissociation constant (Kd) values were obtained by the analysis of the changes in absorbance vs total ligand concentration. The Kd was determined according Eq. 1:1 ΔA=ΔAmaxET+LT+Kd-ET+LT+Kd^2-4ETLT/2ET where ET is a total protein concentration, LT is a total ligand concentration, ΔA and ΔAmax are the absorbance changes at a given and saturation ligand concentration. The protein concentration used for FrdA, SdhA, and quinol:fumarate reductase (QFR) were in a range of 7 to 9 µM. […] The concentration of the isolated flavoprotein was determined in 0.5% SDS using the FAD extinction coefficient ε^445 = […].

Another test addresses SdhA+SdhE (Escherichia coli, UniProt P0AC41). The test is described as follows: Optical difference spectroscopy, dicarboxylate binding to SdhA in the presence of SdhE. Particulars: read-out: Kd^malonate. The procedure:
as §3, §4

Test [1] has as its target T3, Escherichia coli quinol:fumarate reductase flavoprotein subunit FrdA (isolated subunit) (E. coli, UniProt P00363 1-602, covalent FAD on H44 (8α-N(3)-histidyl linkage)).
T3 sequence (looked up): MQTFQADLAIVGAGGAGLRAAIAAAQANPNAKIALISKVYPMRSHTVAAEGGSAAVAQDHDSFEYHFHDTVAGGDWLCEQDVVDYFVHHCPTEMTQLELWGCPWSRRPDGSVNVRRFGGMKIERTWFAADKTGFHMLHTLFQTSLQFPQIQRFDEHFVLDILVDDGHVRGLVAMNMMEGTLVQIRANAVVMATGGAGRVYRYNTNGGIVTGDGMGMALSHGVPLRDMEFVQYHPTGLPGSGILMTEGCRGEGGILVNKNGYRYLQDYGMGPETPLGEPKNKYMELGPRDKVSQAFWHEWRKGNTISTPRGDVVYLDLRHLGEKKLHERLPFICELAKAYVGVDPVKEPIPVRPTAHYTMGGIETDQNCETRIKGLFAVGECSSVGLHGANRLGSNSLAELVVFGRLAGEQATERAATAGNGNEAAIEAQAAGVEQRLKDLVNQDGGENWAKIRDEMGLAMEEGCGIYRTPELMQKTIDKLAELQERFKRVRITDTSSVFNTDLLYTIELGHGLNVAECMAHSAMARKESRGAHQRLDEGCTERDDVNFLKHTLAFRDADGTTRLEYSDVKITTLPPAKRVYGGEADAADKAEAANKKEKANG
Kind of test: cell-based or functional assay.

Test [2] has as its target T4, Escherichia coli succinate:quinone oxidoreductase flavoprotein subunit SdhA (isolated subunit) (E. coli, UniProt P0AC41 1-588).
T4 sequence (looked up): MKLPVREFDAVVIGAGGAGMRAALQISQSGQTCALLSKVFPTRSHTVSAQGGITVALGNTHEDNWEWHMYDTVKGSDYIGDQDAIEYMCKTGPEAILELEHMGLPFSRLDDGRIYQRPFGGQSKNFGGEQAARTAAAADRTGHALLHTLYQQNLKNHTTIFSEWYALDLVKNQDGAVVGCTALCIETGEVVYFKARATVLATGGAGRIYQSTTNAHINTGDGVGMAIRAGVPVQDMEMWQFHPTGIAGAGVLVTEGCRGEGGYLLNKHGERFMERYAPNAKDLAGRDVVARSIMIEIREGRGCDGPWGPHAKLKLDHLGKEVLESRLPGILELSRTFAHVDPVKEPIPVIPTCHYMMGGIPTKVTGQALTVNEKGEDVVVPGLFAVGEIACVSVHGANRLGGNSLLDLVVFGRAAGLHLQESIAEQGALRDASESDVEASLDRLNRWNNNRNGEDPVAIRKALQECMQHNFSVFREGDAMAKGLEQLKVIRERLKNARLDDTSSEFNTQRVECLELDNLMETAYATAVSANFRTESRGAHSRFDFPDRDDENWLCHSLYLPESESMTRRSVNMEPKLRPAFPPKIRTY
The test is described as follows: cell-based or functional assay.

The target in test [3] is T3, Escherichia coli quinol:fumarate …. The test is described as follows: optical difference spectroscopy (FAD absorbance titration); isolated flavoprotein (7 to 9 µM) in the cuvette titrated with SdhE; 50 mM Bis-Tris-Propane pH 8.0, 25 °C; 387–458 nm; fit of absorbance change against total ligand concentration. Particulars: both partners purified.

As for `O=C(O)CC(=O)O` [malonate], the dissociation constant (Kd) was 26 ± 3 µM on E. coli FrdA subunit, 11 ± 1 µM at E. coli SdhA subunit, 180 ± 20 µM at FrdA+SdhE (read-out: Kd^malonate) and 60 ± 5 µM at SdhA+SdhE. Moreover, the “increase of Kd^malonate in the presence of SdhE” value on FrdA+SdhE (presence vs absence of SdhE, stated for both FrdA and SdhA subunits) is given as 5- to 7 fold.

B1: Escherichia coli SdhE assembly factor (natural protein, E. coli)
chain: MDINNKARIHWACRRGMRELDISIMPFFEHEYDSLSDDEKRIFIRLLECDDPDLFNWLMNHGKPADAELEMMVRLIQTRNRERGPVAI
notes: SdhE, FAD assembly factor of E. coli Complex II, as used in optical titrations and kinetics; construct not described
Consider B1, for which the “inhibition by SdhE of the succinate:DCIP reductase reaction of isolated FrdA (0.45 µM), pH 8.0, 30 °C; IC50^SdhE” value in test [1] turned out to be 1.2 µM. Moreover, the “inhibition by SdhE of the succinate:DCIP reductase reaction of isolated SdhA, pH 8.0, 30 °C; IC50^SdhE” value in test [2] is 1.5 µM. The same molecule yielded a Kd in test [3] of 0.7 ± 0.1 µM.

As usually defined, the Kd is a measure of binding affinity in units of concentration.
